Test results reported in paper PMC8911775, “Phosphodiester Silybin Dimers Powerful Radical Scavengers: A Antiproliferative Activity on Different Cancer Cell Lines” (Molecules, 2022).

Columns and labels:
[1] = set-up: method as in PMID 28800072; details: estimated, relative to silibinin; cited from earlier work
Jurkat = assay: Antiproliferative activity on Jurkat cells (CCK-8); format: cell-based; details: Homo sapiens, 48 h incubation
Procedure: (§1) Human T lymphoblastoid (Jurkat) and human metastatic melanoma (WM266) cell lines were grown in RPMI medium supplemented with heat inactivated 10% fetal bovine serum (FBS), 2.5 mM glutamine, 100 U/mL penicillin, and 100 μg/mL streptomycin (Euroclone). Human cervix adenocarcinoma cell line (HeLa), human lung carcinoma (A549), human pancreatic cancer (PANC), human glioblastoma (U87) normal human fibroblasts (HDF) were grown in DMEM supplemented with 10% fetal bovine serum (FBS), 1% glutamine, 100 U/mL penicillin and 100 μg/mL streptomycin (Euroclone, Milano, Italy). Cells were maintained in humidified air containing 5% CO2, at 37 °C [30].
(§2) Cells were plated at density of 10,000 cells/well for Jurkat, 2000/well for WM266 and HDF, 1200 cells/well for HeLa, and 1000 for PANC, U87 and A375 in 96-well microplates (Thermofisher, Waltham, MA, USA). After 24 h incubation, cells were treated with increasing concentrations of synthetized compounds previously solubilized in DMSO at 50 mM concentration. Cell proliferation was determined by using (2-(2-methoxy-4-nitrophenyl)-3-(4-nitrophenyl)-5-(2,4-disulfophenyl)-2H-tetrazolium, monosodium salt (CCK-8, Sigma Aldrich) for Jurkat cells, and the 3-(4,5-dimethylthiazol-2-yl)-2,5- diphenyltetrazolium bromide assay (MTT, Sigma Aldrich, Sigma Aldrich, St. Louis, MO, USA)) for HeLa, WM266, PANC, U87 and HDF cells, after 48 h treatment. Plates were then analyzed by using a microplate reader (Enspire, Perkin Elmer Italia Spa, Milano, Italy) at 450 (CCK-8) or 570 nm (MTT).
(§3) The results are presented as the percentage of proliferating cells respect to the control (vehicle treated cells) and are expressed as means ± SE of, at least, three independent experiments performed in triplicate. The statistical analysis was performed using Student’s t-test, unpaired, two-sided, p < 0.05 was considered significant. The IC50 values were calculated by GraphPad Prism software.

HDF = assay: Antiproliferative activity on normal human fibroblasts HDF; format: cell-based; details: 48 h incubation
Procedure: as §1, §2, §3

[2] = Apoptosis assay, annexin V-FITC/PI double staining, flow cytometry; format: cell-based, Human; details: human, Jurkat cells, 37 °C, Figure 4, read-out: viable cells (lower left quadrant)
Procedure: (§4) For this purpose, Jurkat was incubated with the molecules at a concentration of 200 μM, and flow cytometric analysis with annexin V/propidium iodine (PI) double staining was carried out.
(§5) The apoptosis analysis was performed on Jurkat cells seeded at 2.5 × 10^5 cells/mL in a 6-well plate. The cells were incubated in the absence or presence of 200 μM concentration of examined compounds at 37 °C and apoptosis induction was analysed after 48 h by double staining with annexin V/FITC and propidium iodide (PI) (eBioscience, Affimetrix Santa Clara, CA, USA). The cells undergoing apoptosis were quantified using a flow cytometer equipped with a 488 nm argon laser (Becton Dickinson, Franklin Lakes, NJ, USA) by Cell Quest software. All FACS analyses were performed at least 2 times.

Jurkat cells = assay: as above; format: cell-based, Human; details: 200 μM, 48 h
Procedure: as §4, §5

[3] = Hydroxyl radical (HO•) scavenging, second-order rate constant by laser flash photolysis (thiocyanate competition); details: calculated in H2O; mean of three replicates
Source text: Biologically, the hydroxyl radical (HO^●) is widely believed to be generated when hydrogen peroxide reacts with Fe(II) (Fenton reaction). The putative HO^●∙is an extremely reactive and short-lived species that can damage DNA, proteins, and lipids. However, the Fe(II)/H2O2 mixture has disadvantages in a scavenging assay because many flavonoids as well as flavonolignans are also metal chelators. When the sample is mixed with Fe(II), it may alter the activity of Fe(II) by chelation. As a result, it is impossible to distinguish if the antioxidants are simply good metal chelators or HO^● scavengers. In our study the second order rate constants for HO^● reactions with silybin dimers (6aa, 6bb and 6ab) have been determined by pulse photolysis method using hydrogen peroxide (H2O2) as ROS sources. […] This could be explained considering that in dimers 9′′-9′′ the 3, 5 and 4′′ OH functions, responsible for the radical scavenger activity, are not involved in any bond. […]
The reactivity constant between new silybin dimers and hydroxyl radical has been determined using Laser flash Photolysis system. […]
The formation of di-thiocyanate radical anion (SCN2^●−) through reactivity of photogenerated hydroxyl radicals (HO^●) with thiocyanate (SCN^- in the presence of hydrogen peroxide. The second-order rate constants between HO^● and dimers were determined following reactions (R1–R4 in the Section 2.2) and using the following equation:(1) Abs0/Abs=1+kHO^•,DimerII[Dimer]/kHO^•,SCN^−II[SCN^−] where Abs0 and Abs are the absorption of SCN2•− at 475 nm in absence and presence of dimers; kHO^•,SCN^−II and kHO^•,DimerII are the second-order rate constants of HO^● with thiocyanate and dimers at different concentrations. […] Means were compared by one way analysis of variance (ANOVA) and significant differences were assessed by post hoc tests of least significant. […]

| SMILES | reactivity towards HO• with respect to silibinin [1] | IC50 (Jurkat) [µM] | IC50 (HDF) [µM] | viability at 48 h, 200 µM [2] [%] | apoptotic cells (early and advanced) with respect to the control (Jurkat cells) | Second order rate constant kHO•,X II [3] |
| --- | --- | --- | --- | --- | --- | --- |
| COc1cc(C2Oc3cc([C@H]4Oc5cc(O)cc(O)c5C(=O)[C@@H]4OP(=O)(O)OCC4Oc5ccc([C@H]6Oc7cc(O)cc(O)c7C(=O)[C@@H]6O)cc5OC4c4ccc(O)c(OC)c4)ccc3OC2CO)ccc1O (stereo partly shown) [3-9′′] | about two times |  |  |  |  |  |
| COc1cc(C2Oc3cc([C@H]4Oc5cc(O)cc(O)c5C(=O)[C@@H]4O)ccc3OC2COP(=O)(O)OCC2Oc3ccc([C@H]4Oc5cc(O)cc(O)c5C(=O)[C@@H]4O)cc3OC2c2ccc(O)c(OC)c2)ccc1O (stereo partly shown) [9′′-9′′] | about two times |  |  |  |  |  |
| COc1cc([C@H]2Oc3cc([C@H]4Oc5cc(O)cc(O)c5C(=O)[C@@H]4O)ccc3O[C@@H]2CO)ccc1O [Compound 1a, silybin A, reference compound] |  | 46.7 ± 14.1 | 199 ± 34.5 | 20.2 | 70% |  |
| COc1cc([C@@H]2Oc3cc([C@H]4Oc5cc(O)cc(O)c5C(=O)[C@@H]4O)ccc3O[C@H]2CO)ccc1O [Compound 1b, silybin B, reference compound] |  | 36 ± 14.3 | 172 ± 39 | 17.1 | 70% |  |
| COc1cc([C@H]2Oc3cc([C@H]4Oc5cc(O)cc(O)c5C(=O)[C@@H]4O)ccc3O[C@@H]2COP(=O)(O)OC[C@H]2Oc3ccc([C@H]4Oc5cc(O)cc(O)c5C(=O)[C@@H]4O)cc3O[C@@H]2c2ccc(O)c(OC)c2)ccc1O [Compound 6aa] |  | 71 ± 15.5 | > 200 | 73 | 20% | 8.63 ± 1.35 × 10^9 M^−1·s^−1 |
| COc1cc([C@H]2Oc3cc([C@H]4Oc5cc(O)cc(O)c5C(=O)[C@@H]4O)ccc3O[C@@H]2COP(=O)(O)OC[C@@H]2Oc3ccc([C@H]4Oc5cc(O)cc(O)c5C(=O)[C@@H]4O)cc3O[C@H]2c2ccc(O)c(OC)c2)ccc1O [Compound 6ab] |  | 64 ± 10.8 | > 200 | 63.6 | about 25% | 1.48 ± 0.09 × 10^10 M^−1·s^−1 |
| COc1cc([C@@H]2Oc3cc([C@H]4Oc5cc(O)cc(O)c5C(=O)[C@@H]4O)ccc3O[C@H]2COP(=O)(O)OC[C@@H]2Oc3ccc([C@H]4Oc5cc(O)cc(O)c5C(=O)[C@@H]4O)cc3O[C@H]2c2ccc(O)c(OC)c2)ccc1O [Compound 6bb] |  | 59 ± 19.9 | > 200 | 84.8 | 4% | 1.01 ± 0.16 × 10^10 M^−1·s^−1 |
